Results on one molecule are retold here after patent publication US12325710B2, “Substituted 1,2,3,4,5,6-hexahydroazepino[4,5-b]indoles for treating brain disorders” (priority 2019, dated 2025).

Each structure is given as a SMILES string. “Also recorded” adds a separate entry of the source.

The test system of one data set is larval zebrafish. Kind of data set: Larval zebrafish movement activity during a battery of light and acoustic stimuli. From the text:
Stimuli applied over time are indicated under the heatmaps. Colors indicate bright LED light of respective colors, black traces represent the waveforms of acoustic stimuli, and gray vertical lines indicate physical tapping as secondary acoustic stimuli.
Response is […] proportional to classification accuracy; 0-20% indicates no ability and 100% indicates perfect classification. […] The solid line denotes the median and the shading denotes a 95th percentile confidence interval calculated by bootstrap. N=8 wells/condition (64 animals/condition).

The subject of a further data set is zebrafish. Kind of data set: Zebrafish developmental toxicity assay. It counts as in vivo.
The target of the next data set is 5-HT2B receptors (Homo sapiens, UniProt P41595). Kind of data set: 5-HT2B Gq-mediated calcium flux functional assay. It counts as cell-based. On the procedure:
(§1) Serotonin and Opioid Receptor Functional Assays. Functional assay screens at 5-HT and opioid receptors were performed in parallel using the same compound dilutions and 384-well format high-throughput assay platforms. Assays assessed activity at all human isoforms of the receptors, except where noted for the mouse 5-HT2A receptor. Receptor constructs in pcDNA vectors were generated from the Presto-Tango GPCR library with minor modifications. All compounds were serially diluted in drug buffer (HBSS, 20 mM HEPES, pH 7.4 supplemented with 0.1% bovine serum albumin and 0.01% ascorbic acid) and dispensed into 384-well assay plates using a FLIPR^TETRA (Molecular Devices). Every plate included a positive control such as 5-HT (for all 5-HT receptors), DADLE (DOR), salvinorin A (KOR), and DAMGO (MOR). For measurements of 5-HT2A, 5-HT2B, and 5-HT2C Gq-mediated calcium flux function, HEK Flp-In 293 T-Rex stable cell lines (Invitrogen) were loaded with Fluo-4 dye for one hour, stimulated with compounds and read for baseline (0-10 seconds) and peak fold-over-basal fluorescence (5 minutes) at 25° C. on the FLIPR^TETRA. For measurement of 5-HT6 and 5-HT7a functional assays, Gs-mediated cAMP accumulation was detected using the split-luciferase GloSensor assay in HEKT cells measuring luminescence on a Microbeta Trilux (Perkin Elmer) with a 15 min drug incubation at 25° C. For 5-HT1A, 5-HT1B, 5-HT1F, MOR, KOR, and DOR functional assays, Gi/o-mediated cAMP inhibition was measured using the split-luciferase GloSensor assay in HEKT cells, conducted similarly as above, but in combination with either 0.3 μM isoproterenol (5-HT1A, 5-HT1B, 5-HT1F) or 1 μM forskolin (MOR, KOR, and DOR) to stimulate endogenous cAMP accumulation. For measurement of 5-HT1D, 5-HT1E, 5-HT4, and 5-HT5A functional assays, β-arrestin2 recruitment was measured by the Tango assay utilizing HTLA cells expressing TEV fused-β-arrestin2, as described previously with minor modifications. […]
For orientation: A change in cytosolic calcium serves as a functional read-out for many receptors and channels.

For data set [1], the system named is opioid receptors (MOR, KOR, DOR). Kind of data set: Opioid receptor functional assays (Gi/o-mediated cAMP inhibition). It counts as cell-based, human. On the procedure: as §1, with “C.” for “C. For 5-HT1A, 5-HT1B, 5-HT1F, MOR, KOR, and DOR functional assays, Gi/o-mediated cAMP inhibition was measured using the split-luciferase GloSensor assay in HEKT cells, conducted similarly as above, but in combination with either 0.3 μM isoproterenol (5-HT1A, 5-HT1B, 5-HT1F) or 1 μM forskolin (MOR, KOR, and DOR) to stimulate endogenous cAMP accumulation. For measurement of 5-HT1D, 5-HT1E, 5-HT4, and 5-HT5A functional assays, β-arrestin2 recruitment was measured by the Tango assay utilizing HTLA cells expressing TEV fused-β-arrestin2, as described previously with minor modifications.”

The target of a further data set is T1, 5-HT1A (Homo sapiens, UniProt P08908).
T1 construct: expressed in transfected cells; host or cells: HEKT cells (GloSensor cAMP assay)
T1 sequence (P08908 1-422): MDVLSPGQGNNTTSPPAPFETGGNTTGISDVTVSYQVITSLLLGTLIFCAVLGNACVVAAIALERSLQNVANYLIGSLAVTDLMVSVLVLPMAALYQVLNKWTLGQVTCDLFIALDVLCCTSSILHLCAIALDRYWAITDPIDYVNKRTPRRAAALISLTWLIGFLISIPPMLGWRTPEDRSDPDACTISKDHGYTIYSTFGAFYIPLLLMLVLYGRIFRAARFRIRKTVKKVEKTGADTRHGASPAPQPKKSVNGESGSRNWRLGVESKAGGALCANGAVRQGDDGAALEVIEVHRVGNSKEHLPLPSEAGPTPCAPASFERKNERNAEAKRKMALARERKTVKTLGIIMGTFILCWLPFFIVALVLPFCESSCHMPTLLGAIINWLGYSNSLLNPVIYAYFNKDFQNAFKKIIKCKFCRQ
Kind of data set: 5-HT1A functional assay (Gi/o-mediated cAMP inhibition). It counts as cell-based. On the procedure: as §1, with “C.” for “C. For 5-HT1A, 5-HT1B, 5-HT1F, MOR, KOR, and DOR functional assays, Gi/o-mediated cAMP inhibition was measured using the split-luciferase GloSensor assay in HEKT cells, conducted similarly as above, but in combination with either 0.3 μM isoproterenol (5-HT1A, 5-HT1B, 5-HT1F) or 1 μM forskolin (MOR, KOR, and DOR) to stimulate endogenous cAMP accumulation. For measurement of 5-HT1D, 5-HT1E, 5-HT4, and 5-HT5A functional assays, β-arrestin2 recruitment was measured by the Tango assay utilizing HTLA cells expressing TEV fused-β-arrestin2, as described previously with minor modifications.”

A further data set deals with T2, 5-HT2C (Homo sapiens, UniProt P28335).
T2 sequence (P28335 33-458): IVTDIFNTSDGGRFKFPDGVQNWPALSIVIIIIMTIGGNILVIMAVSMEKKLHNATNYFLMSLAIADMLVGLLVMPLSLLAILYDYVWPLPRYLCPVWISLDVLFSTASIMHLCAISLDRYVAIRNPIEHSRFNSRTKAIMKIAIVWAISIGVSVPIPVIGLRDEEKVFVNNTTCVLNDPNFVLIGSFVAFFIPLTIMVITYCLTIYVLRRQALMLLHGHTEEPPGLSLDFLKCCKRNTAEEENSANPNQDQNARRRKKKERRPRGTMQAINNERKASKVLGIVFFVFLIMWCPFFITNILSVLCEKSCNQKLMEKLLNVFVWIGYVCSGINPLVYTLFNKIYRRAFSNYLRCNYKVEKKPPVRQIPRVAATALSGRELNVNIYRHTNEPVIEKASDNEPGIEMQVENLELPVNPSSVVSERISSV
Kind of data set: 5-HT2C Gq-mediated calcium flux functional assay. It counts as cell-based. The method, then:
as §1, with “C.” for “C. For 5-HT1A, 5-HT1B, 5-HT1F, MOR, KOR, and DOR functional assays, Gi/o-mediated cAMP inhibition was measured using the split-luciferase GloSensor assay in HEKT cells, conducted similarly as above, but in combination with either 0.3 μM isoproterenol (5-HT1A, 5-HT1B, 5-HT1F) or 1 μM forskolin (MOR, KOR, and DOR) to stimulate endogenous cAMP accumulation. For measurement of 5-HT1D, 5-HT1E, 5-HT4, and 5-HT5A functional assays, β-arrestin2 recruitment was measured by the Tango assay utilizing HTLA cells expressing TEV fused-β-arrestin2, as described previously with minor modifications.”

Another data set relates to C57/BL6J mice. Kind of data set: Two-bottle choice alcohol consumption (binge drinking). The data set is classed as in vivo, mouse. The method, then: Alcohol Consumption. Male C57/BL6J mice (6-8 weeks old) were obtained from The Jackson Laboratory (Bar Harbor, ME) and were individually housed in a reverse light/dark cycle room (lights on […]). Temperature was kept constant at 22±2° C., and relative humidity was maintained at 50±5%. Mice were given access to food and tap water ad libitum. After one week of habituation to the vivarium, the two-bottle choice alcohol-drinking paradigm was conducted as described previously. For 7 weeks, mice were given intermittent access in their home cage to alcohol. On Mondays, Wednesdays, and Fridays, two bottles were made available for 24 h—one containing 20% ethanol and another containing only water. On Tuesdays, Thursdays, Saturdays, and Sundays, the animals were only given access to water. After 7 weeks, mice were administered TBG (50 mg/kg) or vehicle (saline) via intraperitoneal injection 3 h before the beginning of a drinking session. Ethanol (g/kg) and water (ml/kg) intake were monitored during the first 4 h (initial binge), the first 24 h, and the second 24 h. Next, the animals were only given water for 48 h before the start of another drinking session when ethanol and water consumption was monitored. The placement (right or left) of the bottles was altered in each session to control for side preference. Spillage was monitored using an additional bottle in a nearby unused cage. Alcohol preference was calculated as the ratio between alcohol/(water+alcohol). Mice were tested using a counterbalanced, within subject design with one week of drug-free alcohol drinking regimen between treatments. One mouse was excluded because the bottle was leaking.

Sequence of 5-HT2B receptors (P41595 whole entry, canonical isoform): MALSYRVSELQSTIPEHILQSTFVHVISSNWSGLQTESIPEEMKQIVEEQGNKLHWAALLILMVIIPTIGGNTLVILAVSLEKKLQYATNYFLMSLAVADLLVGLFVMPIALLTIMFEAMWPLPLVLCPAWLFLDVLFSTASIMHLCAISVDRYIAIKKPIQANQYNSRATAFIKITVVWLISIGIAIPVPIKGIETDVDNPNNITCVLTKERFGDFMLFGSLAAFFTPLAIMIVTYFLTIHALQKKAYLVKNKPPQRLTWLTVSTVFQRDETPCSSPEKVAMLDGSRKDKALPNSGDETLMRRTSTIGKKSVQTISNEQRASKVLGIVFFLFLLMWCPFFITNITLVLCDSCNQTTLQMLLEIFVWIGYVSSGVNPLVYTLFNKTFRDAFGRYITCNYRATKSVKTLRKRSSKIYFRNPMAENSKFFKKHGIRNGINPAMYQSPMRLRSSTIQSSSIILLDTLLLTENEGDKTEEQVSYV

Turning to `COc1ccc2c3c([nH]c2c1)CCN(C)CC3` [TBG], the “behavioral phenotype at highest concentration versus lethal control” value with larval zebrafish (200 μM) was “did not produce this phenotype”. Besides, the “behavioral phenotype with increasing concentration versus vehicle and lethal control (eugenol, 100 μM)” value in the data set on larval zebrafish (1 h treatment, concentration-response) is recorded as “do not produce movement responses in larval zebrafish similar to a lethal concentration of eugenol”. In the data set with larval zebrafish (highest concentrations (200 μM)), the “machine learning classification of movement responses” value is “more similar to vehicle controls than to ibogaine, noribogaine, or lethal controls”. For the same molecule, the “proportion of viable to non-viable fish” value in the data set with zebrafish (66 μM, 5 dpf) is “statistically indistinguishable from vehicle control; also recorded: does not cause developmental toxicity”. Besides, the “malformations, mortality, non-viable fish” value with zebrafish (100 μM, 2 and 5 dpf) is “significantly fewer non-viable fish than ibogaine or noribogaine treatments”. For the same molecule, at 5-HT2B receptors, the “activity mode at 5-HT2B receptors” value is recorded as “antagonists”. Besides, the opioid agonist activity result in data set [1] was “weak or no opioid agonist activity”. On 5-HT1A, the “5-HT1A agonist activity compared to 5-MeO-DMT” value is “weaker 5-HT1A and 5-HT2C agonist activity”. For the same molecule, the “5-HT2C agonist activity compared to 5-MeO-DMT” value at 5-HT2C is “weaker 5-HT1A and 5-HT2C agonist activity”. In addition, in the data set on C57/BL6J mice (TBG 50 mg/kg i.p.), the “EtOH consumption in the days following administration” value is “long-lasting decreases in EtOH consumption; also recorded: lower for at least two days”; the “EtOH preference during binge drinking session” value was “reduces EtOH consumption and preference”; the water intake entry was “without impacting H2O intake; also recorded: not affected”. Besides, the “EtOH consumption during binge drinking session” value in the data set with C57/BL6J mice (first 4 h, TBG 50 mg/kg i.p. 3 h before session) is “reduces EtOH consumption and preference; also recorded: robustly reduces binge drinking”.
